Consider three substances from patent US20030199431A1, “Modified peptide nucleic acid (PNA) molecules” (priority 1999, published 2003).

One test concerns test culture. It counts as cell-based. The following applies: 37° C., 16 hours.
Another test deals with E. coli K12. Nature of the test: Bacterial growth inhibition with PNA 249 (without peptide, FtsZ) and peptide 250, 100% Mueller-Hinton broth (Table 18). The test is classed as cell-based, Escherichia coli. The following applies: for Growth inhibition effect: low concentration end.

With “H-KFFKFFKFFK-ado-TGA CTA GAT GAG-NH2 [PNA 136]”, the Growth inhibition result in the test with test culture is given as “No growth inhibition was detected”. With “H-CG-KLAKALKKLL-NH2 (H-CGKLAKALKKLL-NH2) [PNA 250, peptide alone, also used for PNA 174]”, in the test on E. coli K12, the “Peptide concentration at which the peptide alone may show growth inhibition effect” value is recorded as “above 2500 nM”; the Growth inhibition effect result is “neither 249 nor 250 alone nor 249 and 250 together show any useful effect”. H-ado-TTC AAA CAT AGT-NH2 [PNA 249]: the Growth inhibition effect result with E. coli K12 was “neither 249 nor 250 alone nor 249 and 250 together show any useful effect”.
